Laboratory results: patent publication US20030165475A1, “Non-lethal methods for conditioning a recipient for bone marrow transplantation” (priority 1993, published 2003)
“And” between values parts separate entries of the source, which are not always exact repeats. Equal values may be shown once. Read-outs that look alike come from different tables or passages of the source.

Tests used:
B10 mice [1] = settings: for NO. OF ANIMALS ENGRAFTED: 300 cGy
Method: Recipients were characterized for donor cell engraftment using flow cytometry (FACS II, Becton Dickinson; Mountain View, Calif.) to determine the presence of peripheral blood lymphocytes bearing H-2^b, H-2^k, and H-2^d encoded antigens as described (Jeffries et al., 1985, J Exp Med 117:127).
Briefly, peripheral blood was collected through tail bleeding into heparinized plastic serum vials. 2001 μl of Medium 199 (Gibco Laboratories; Grand Island, N.Y.) were added to each vial. After thorough mixing, the suspension was layered over 1.5 ml of room temperature Lymphocyte Separation Medium (LSM) (Organon Teknika; Durham, N.C.) and centrifuged at 37° C. (400g×20 minutes). The buffy coat layer was aspirated from the Medium 199-LSM interface and washed with medium. Lymphocytes were stained with fluorescein-conjugated monoclonal antibodies for donor- and host-specific class I antibodies H2K^b (AF6-88.5), H2K^d (SF1-1.1), and H2K^k (AF3-12.1) (Pharmingen) conjugated with fluorescein and lineage markers conjugated with PE α β-TCR (H57-597), CD4 (L3T4), CD8 (Ly2), NK1.1 (PK136), and CD45R/B220 (RA3-603) (Pharmingen) and MAC-1 (M1/70) (Boehringer Mannheim, Indianapolis, Ind.) for 45 minutes at 4° C.

NOD mice = assay: Partial conditioning for HSC chimerism in NOD mice; format: in vivo, mouse
Excerpt: Often, higher doses of donor cells are required for engraftment as well as higher doses of conditioning to make space. […] One of the goals of the present studies was to identify a strategy to overcome the alloresistance to chimerism in NOD mice by further reducing the irradiation dose for conditioning.
The animals were transplanted with 55×10^6 or 60×10^6 B10.BR/SgnSnJ bone marrow cells, respectively.

B10 mice [2] = assay: Glucose phosphate isomerase-1 (GPI-1) typing of platelets and erythrocytes in mixed allogeneic chimeras; format: in vivo, mouse; settings: 5 Gy TBI-based regimen, individual animals, 2 months
Method: Peripheral blood (0.9 ml) was collected into heparinized microcentrifuge vials. The blood was spun for four seconds at the maximal setting (14,000 rpm) of an Eppendorf microcentrifuge (Beckman #5415). This setting was chosen through an optimization strategy in which force and times were varied as a function of retrieved platelet number. This duration included the acceleration phase, which is incomplete when power is curtailed at the four second mark. After this, the samples were allowed to slow to a halt without braking. Platelet-rich plasma was then carefully aspirated with a disposable polyethylene pipette, avoiding any disturbance of the buffy coat. Triplicate platelet counts were obtained using a Coulter Model ZB1 counter (Hialeah, Fla.), and the average (variation 5%) calculated. […]
Typing of red blood cell (RBC) and platelet phenotypes was performed using the GPI-1 assay (Ildstad, et al., 1991, J Exp Med 174:467). The precipitation pattern for BALB/c mouse and B10 mouse were performed as controls and determined to be totally disparate. […] Percentages were determined by comparison with the positive control. […] In titrations performed to determine the sensitivity of this assay, as low as 2% of BALB/c RBC titrated into normal B10RBC could be reliably detected (Ildstad, et al., 1991, J Exp Med 174:467). […]

baboons = system: baboons
Method: In addition-to TBI, TLI was also tested in conditioning recipients for bone marrow transplantation. As a single dose, TLI was simply a modified form of TBI in that the method of delivery was the same, except that only certain parts of the recipient's body was exposed to the irradiation. […] In the following study, baboons were treated with a single dose of 7.5 Gy of TLI at day 0 followed by transfer of allogeneic baboon bone marrow cells with at least one MHC disparity. […] Xenogeneic transplantation with human cells was also performed in baboons conditioned with TLI.

[3] = 600 cGy TBI + CyP 50 mg/kg i.p. two days after BMT, 60 × 10^6 B10.BR cells

O=P1(N(CCCl)CCCl)NCCCO1 (stereo not drawn) [CyP, cyclophosphamide]
recipients engrafted (B10 mice [1]; 50 mg/kg CyP or more on day 2 with ALG plus 300 cGy TBI): more than 85% | NO. OF ANIMALS ENGRAFTED (B10 mice [1]; CyP 50 mg/kg day 2, 1 MG ALG): 2/2 | NO. OF ANIMALS ENGRAFTED (B10 mice [1]; CyP 50 mg/kg day 2, 2 MG ALG): 1/1 | NO. OF ANIMALS ENGRAFTED (B10 mice [1]; CyP 50 mg/kg day 2, TOTAL): 3/3 | NO. OF ANIMALS ENGRAFTED (B10 mice [1]; CyP 100 mg/kg day 2, 1 MG ALG): 2/2 | NO. OF ANIMALS ENGRAFTED (B10 mice [1]; CyP 100 mg/kg day 2, 2 MG ALG): 2/2 | NO. OF ANIMALS ENGRAFTED (B10 mice [1]; CyP 100 mg/kg day 2, TOTAL): 4/4 | NO. OF ANIMALS ENGRAFTED (B10 mice [1]; CyP 150 mg/kg day 2, 1 MG ALG): 3/4 | NO. OF ANIMALS ENGRAFTED (B10 mice [1]; CyP 150 mg/kg day 2, 2 MG ALG): 2/2 | NO. OF ANIMALS ENGRAFTED (B10 mice [1]; CyP 150 mg/kg day 2, TOTAL): 5/6 | NO. OF ANIMALS ENGRAFTED (B10 mice [1]; CyP 200 mg/kg day 2, 1 MG ALG): 5/6 | NO. OF ANIMALS ENGRAFTED (B10 mice [1]; CyP 200 mg/kg day 2, 2 MG ALG): 7/8 | NO. OF ANIMALS ENGRAFTED (B10 mice [1]; CyP 200 mg/kg day 2, TOTAL): 12/14 | ANIMALS WITH ENGRAFTMENT (NOD mice; 600 cGy TBI + 100 μg mAb i.v. day 5, 3, 1 prior, or + 200 mg/kg CyP i.p. two days after, 55 or 60 × 10^6 B10.BR cells): 4/4 | donor chimerism (NOD mice; [3]): 91.5% | engraftment (NOD mice; [3]): 100% | animals engrafted (NOD mice; 600 cGy TBI + single dose CyP 200 mg/kg): 100% | % BALB/c RBC (B10 mice [2]): 100% | % BALB/c platelets (B10 mice [2]): 71% and 78% and 69% and 31% | treated animals with stable donor cell engraftment (baboons; 7.5 Gy TLI + single dose CyP 50 mg/kg at day +2): about 50% | duration of stable engraftment (baboons; 7.5 Gy TLI + two doses of CyP): ≥ 36 weeks
